Assay results as given in patent US5064811A, “De-mannosyl teicoplanin derivatives” (Gruppo LePetit S.p.A., priority 1987, dated 1991).

Columns and labels:
[1] = system: Staph. haemolyticus L602 (clinical isolate); test: MIC, standard broth dilution test; format: cell-based, Staphylococcus haemolyticus; conditions: Isosensitest broth, 24 h; inoculum about 10^4-10^5 cfu/ml
[2] = system: Strep. mitis L796 (clinical isolate); test: MIC, standard broth dilution test; format: cell-based, Streptococcus mitis; conditions: Todd-Hewitt broth, 24 h; inoculum about 10^4-10^5 cfu/ml
Strep. pyogenes L49 C203 = test: MIC, standard broth dilution test; format: cell-based, Streptococcus pyogenes; conditions: Todd-Hewitt broth, 24 h; inoculum about 10^4-10^5 cfu/ml
[3] = system: Strep. faecalis L149 ATCC 7080; test: MIC, standard broth dilution test; format: cell-based, Streptococcus faecalis; conditions: Isosensitest broth, 24 h; inoculum about 10^4-10^5 cfu/ml
[4] = system: Staph. epider midis L147 ATCC 12228 (coagulase negative); test: MIC, standard broth dilution test; format: cell-based, Staphylococcus epidermidis; conditions: Isosensitest broth, 24 h; inoculum about 10^4-10^5 cfu/ml
[5] = system: Neisseria gonorrhoeae L997 ISM68/126; test: MIC, standard broth dilution test; format: cell-based; conditions: GC base broth +1% Isovitalex, 48 h, CO2-enriched atmosphere; inoculum about 10^4-10^5 cfu/ml
[6] = system: Haemophilus influenzae L 970 type b ATCC 19418; test: MIC, standard broth dilution test; format: cell-based; conditions: Brain Heart broth +1% Supplement C, 48 h; inoculum about 10^4-10^5 cfu/ml
[7] = system: Pseudomonas aeruginosa L4 ATCC10145; test: MIC, standard broth dilution test; format: cell-based; conditions: Isosensitest broth, 24 h (Gram-negative bacteria); inoculum about 10^4-10^5 cfu/ml
Staph. aureus L165 = test: MIC, standard broth dilution test; format: cell-based, Staphylococcus aureus; conditions: Isosensitest broth, 24 h
[8] = system: Proteus vulgaris L79 X19H ATCC881; format: cell-based; conditions: Isosensitest broth, 24 h (Gram-negative bacteria); inoculum about 10^4-10^5 cfu/ml
[9] = system: Escherichia coli L47 SKF 12140; test: MIC, standard broth dilution test; format: cell-based; conditions: Isosensitest broth, 24 h; inoculum about 10^4-10^5 cfu/ml
[10] = system: Strep. pneumoniae L44 UC41; test: MIC, standard broth dilution test; format: cell-based, Streptococcus pneumoniae; conditions: Todd-Hewitt broth, 24 h; inoculum about 10^4-10^5 cfu/ml
[11] = Staph. aureus (30% bovine serum)
[12] = Staph. aureus L165, inoculum about 10^4-10^5 cfu/ml

Row | SMILES | M.I.C. [1] [microgram/ml] | M.I.C. [2] [microgram/ml] | M.I.C. (Strep. pyogenes L49 C203) [microgram/ml] | M.I.C. [3] [microgram/ml] | M.I.C. [4] [microgram/ml] | M.I.C. [5] [microgram/ml] | M.I.C. [6] [microgram/ml] | M.I.C. [7] [microgram/ml] | M.I.C. (Staph. aureus L165; Staph. aureus (10^6 cfu/ml)) [microgram/ml] | M.I.C. (Staph. aureus L165; [11]) [microgram/ml] | M.I.C. (Staph. aureus L165; [12]) [microgram/ml] | M.I.C. [8] [microgram/ml] | M.I.C. [9] [microgram/ml] | M.I.C. [10] [microgram/ml]
1 | CC(=O)N[C@H]1[C@H](OC2c3ccc(c(Cl)c3)Oc3cc4cc(c3O[C@@H]3O[C@H](CO)[C@@H](O)[C@H](O)[C@H]3NC(=O)CCCCCCC(C)C)Oc3ccc(cc3Cl)CC3NC(=O)C(N)c5ccc(O)c(c5)Oc5cc(O)cc(c5)C(NC3=O)C(=O)NC4C(=O)NC3C(=O)NC2C(=O)NC(C(=O)O)c2cc(O)cc(O)c2-c2cc3ccc2O)O[C@H](CO)[C@@H](O)[C@@H]1O (some centres unmarked) [DM-TA2-2, de-mannosyl teicoplanin complex component 2] | 0.5 | 0.063 | 0.063 | 0.063 | 0.063 | 32 | 64 | > 128 | 0.125 | 0.5 | 0.063 | > 128 | > 128 | 0.063
2 | CCCCCCCCCC(=O)N[C@H]1[C@H](Oc2c3cc4cc2Oc2ccc(cc2Cl)C(O[C@@H]2O[C@H](CO)[C@@H](O)[C@H](O)[C@H]2NC(C)=O)C2NC(=O)C(NC(=O)C4NC(=O)C4NC(=O)C(Cc5ccc(c(Cl)c5)O3)NC(=O)C(N)c3ccc(O)c(c3)Oc3cc(O)cc4c3)c3ccc(O)c(c3)-c3c(O)cc(O)cc3C(C(=O)O)NC2=O)O[C@H](CO)[C@@H](O)[C@@H]1O (some centres unmarked) [DM-TA2-3, de-mannosyl teicoplanin complex component 3] | 0.5 | 0.063 | 0.063 | 0.063 | 0.063 | 32 | 64 | 128 | 0.125 | 0.5 | 0.063 | > 128 | > 128 | 0.063
3 | CCC(C)CCCCCCC(=O)N[C@H]1[C@H](Oc2c3cc4cc2Oc2ccc(cc2Cl)C(O[C@@H]2O[C@H](CO)[C@@H](O)[C@H](O)[C@H]2NC(C)=O)C2NC(=O)C(NC(=O)C4NC(=O)C4NC(=O)C(Cc5ccc(c(Cl)c5)O3)NC(=O)C(N)c3ccc(O)c(c3)Oc3cc(O)cc4c3)c3ccc(O)c(c3)-c3c(O)cc(O)cc3C(C(=O)O)NC2=O)O[C@H](CO)[C@@H](O)[C@@H]1O (some centres unmarked) [DM-TA2-4, de-mannosyl teicoplanin complex component 4] | 0.5 | 0.125 | 0.063 | 0.063 | 0.063 | 32 | 64 | > 128 | 0.25 | 0.5 | 0.125 | > 128 | > 128 | 0.063
4 | CC(=O)N[C@H]1[C@H](OC2c3ccc(c(Cl)c3)Oc3cc4cc(c3O[C@@H]3O[C@H](CO)[C@@H](O)[C@H](O)[C@H]3NC(=O)CCCCCCCC(C)C)Oc3ccc(cc3Cl)CC3NC(=O)C(N)c5ccc(O)c(c5)Oc5cc(O)cc(c5)C(NC3=O)C(=O)NC4C(=O)NC3C(=O)NC2C(=O)NC(C(=O)O)c2cc(O)cc(O)c2-c2cc3ccc2O)O[C@H](CO)[C@@H](O)[C@@H]1O (some centres unmarked) [DM-TA2-5, de-mannosyl teicoplanin complex component 5] | 0.25 | 0.063 | 0.063 | 0.063 | 0.063 | 32 | 32 | > 128 | 0.125 | 0.5 | 0.063 | > 128 | > 128 | 0.063
